According to US20220340875A1, “METHODS OF CULTURING AND/OR EXPANDING STEM CELLS AND/OR LINEAGE COMMITTED PROGENITOR CELLS USING AMIDO COMPOUNDS” (IDEAYA BIOSCIENCES, INC., priority 2018, published 2022):

target: T1, hAhR (Homo sapiens, UniProt P35869); experiment: AhR DRE-luciferase reporter transcriptional assay, antagonist mode (TCDD-induced); assay type: cell-based; conditions: HEPG2 DRE-Luc cells, 3 nM TCDD, 24 hour incubation, relative IC50
T1 construct: Stably integrated DRE-luciferase cell lines were generated by transducing the both cell lines with Cignal XRE luciferase reporter (Qiagen) lentiviral particles; endogenous in cells
T1 sequence (P35869 11-848): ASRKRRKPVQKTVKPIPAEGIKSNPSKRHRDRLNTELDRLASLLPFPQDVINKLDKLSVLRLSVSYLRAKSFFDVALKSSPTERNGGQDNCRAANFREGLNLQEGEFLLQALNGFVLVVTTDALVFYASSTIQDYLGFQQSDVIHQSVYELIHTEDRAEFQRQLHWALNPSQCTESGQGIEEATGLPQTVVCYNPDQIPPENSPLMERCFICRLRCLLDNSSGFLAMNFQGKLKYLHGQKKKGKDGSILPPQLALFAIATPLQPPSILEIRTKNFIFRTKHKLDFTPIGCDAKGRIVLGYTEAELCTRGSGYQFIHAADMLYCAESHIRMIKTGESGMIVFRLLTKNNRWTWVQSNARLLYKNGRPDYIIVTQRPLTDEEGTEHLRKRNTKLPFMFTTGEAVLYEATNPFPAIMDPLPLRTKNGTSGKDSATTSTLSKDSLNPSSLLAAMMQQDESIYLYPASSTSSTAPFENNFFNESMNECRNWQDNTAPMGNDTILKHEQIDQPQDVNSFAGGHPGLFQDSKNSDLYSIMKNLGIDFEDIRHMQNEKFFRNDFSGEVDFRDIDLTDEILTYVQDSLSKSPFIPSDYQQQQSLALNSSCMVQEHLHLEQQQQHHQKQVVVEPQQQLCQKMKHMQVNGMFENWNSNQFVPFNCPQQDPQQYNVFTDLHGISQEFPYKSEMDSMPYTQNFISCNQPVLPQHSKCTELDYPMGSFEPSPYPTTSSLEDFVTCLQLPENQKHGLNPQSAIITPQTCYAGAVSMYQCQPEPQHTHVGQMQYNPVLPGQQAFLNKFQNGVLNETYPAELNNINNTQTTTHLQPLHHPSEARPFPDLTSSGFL
Outline: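 HepG2 cells carrying a stably integrated DRE-luciferase reporter, in OptiMEM with 0.5% FBS; semi-log compound doses added with 3 nM TCDD, 24 h incubation, firefly luciferase read-out. Percent maximal activity normalised between vehicle ± TCDD; relative IC50 taken as half-reduction between curve plateaus.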

Row | SMILES | IC50 [µM]
1 | Cc1cc(-c2ncc3cc(C(F)(F)F)ccc3n2)ccc1N(C)C(=O)c1ccnc(C(N)=O)c1 [Example 152, N4-methyl-N4-(2-methyl-4-(6-(trifluoromethyl)quinazolin-2-yl)phenyl)pyridine-2,4-dicarboxamide] | < 0.2
2 | Cc1cc(-c2ncc3nc(C(F)(F)F)cc(C)c3n2)ccc1N(C)C(=O)c1ccnn1CC(C)(C)O [Example 224, 1-(2-hydroxy-2-methylpropyl)-N-methyl-N-(2-methyl-4-(8-methyl-6-(trifluoromethyl)pyrido[3,2-d]pyrimidin-2-yl)phenyl)-1H-pyrazole-5-carboxamide] | 0.2 to 0.5
3 | Cc1cc(-c2ncc3cc(C(F)(F)F)ccc3n2)ccc1N(C)C(=O)c1ccnn1CC(N)=O [Example 156, 1-(2-amino-2-oxoethyl)-N-methyl-N-(2-methyl-4-(6-(trifluoromethyl)quinazolin-2-yl)phenyl)-1H-pyrazole-5-carboxamide] | < 0.2
4 | Cc1cc(-c2ncc3nc(C(F)(F)F)cc(C)c3n2)ccc1NC(=O)c1ccnn1CC(N)=O [Example 170, 1-(2-amino-2-oxoethyl)-N-(2-methyl-4-(8-methyl-6-(trifluoromethyl)-pyrido[3,2-d]pyrimidin-2-yl)phenyl)-1H-pyrazole-5-carboxamide] | < 0.2
5 | Cc1cc(-c2ncc3cc(C(F)(F)F)ccc3n2)ccc1N(C)C(=O)c1ccncc1 [Example 116, N-methyl-N-(2-methyl-4-(6-(trifluoromethyl)quinazolin-2-yl)phenyl)isonicotinamide] | < 0.2
6 | Cc1cc(-c2ncc3cc(C(F)(F)F)ccc3n2)ccc1NC(=O)c1nn(C)cc1C [Example 216, 1,4-dimethyl-N-(2-methyl-4-(6-(trifluoromethyl)quinazolin-2-yl)phenyl)-1H-pyrazole-3-carboxamide] | < 0.2
7 | Cc1cc(-c2ncc3cc(C(F)(F)F)ccc3n2)ccc1N(C)C(=O)c1ccnn1CCO [Example 211, 1-(2-hydroxyethyl)-N-methyl-N-(2-methyl-4-(6-(trifluoromethyl)quinazolin-2-yl)phenyl)-1H-pyrazole-5-carboxamide] | < 0.2
8 | Cc1cc(N(C)C(=O)c2ccnn2C)ccc1-c1ncc2nc(C(F)(F)F)ccc2n1 [Example 187, N,1-dimethyl-N-(3-methyl-4-(6-(trifluoromethyl)pyrido[3,2-d]pyrimidin-2-yl)phenyl)-1H-pyrazole-5-carboxamide] | < 0.2
9 | Cc1cc(-c2ncc3cc(C(F)(F)F)ccc3n2)ccc1N(C)C(=O)c1nn(C)cc1C [Example 214, N,1,4-trimethyl-N-(2-methyl-4-(6-(trifluoromethyl)quinazolin-2-yl)phenyl)-1H-pyrazole-3-carboxamide] | 0.2 to 0.5
10 | Cc1cc(-c2nc(N)c3nc(C(F)(F)F)cc(C)c3n2)ccc1N(C)C(=O)c1ccnn1C [Example 154, N-(4-(4-amino-8-methyl-6-(trifluoromethyl)pyrido[3,2-d]pyrimidin-2-yl)-2-methylphenyl)-N,1-dimethyl-1H-pyrazole-5-carboxamide] | < 0.2
11 | COc1cnccc1C(=O)N(C)c1ccc(-c2ncc3nc(C(F)(F)F)cc(C)c3n2)cc1C [Example 183, 3-methoxy-N-methyl-N-(2-methyl-4-(8-methyl-6-(trifluoromethyl)-pyrido[3,2-d]pyrimidin-2-yl)phenyl)isonicotinamide] | < 0.2
12 | Cn1nccc1C(=O)Nc1ccc(-c2ncc3nc(C(F)(F)F)ccc3n2)cc1F [Example 137, N-(2-fluoro-4-(6-(trifluoromethyl)pyrido[3,2-d]pyrimidin-2-yl)phenyl)-1-methyl-1H-pyrazole-5-carboxamide] | < 0.2

The next lines start with the values.

Row | IC50 [µM] | SMILES
13 | 1 to 10 | Cc1cc(-c2ccc3nncc(C)c3c2)ccc1NC(=O)c1ccnn1C [Example 062, 1-methyl-N-(2-methyl-4-(4-methylcinnolin-6-yl)phenyl)-1H-pyrazole-5-carboxamide]
14 | < 0.2 | Cc1cc(-c2ccc3cccc(C)c3n2)ccc1NC(=O)c1ccnn1C [Example 020, 1-Methyl-N-(2-methyl-4-(8-methylquinolin-2-yl)phenyl)-1H-pyrazole-5-carboxamide]
15 | 1 to 10 | Cc1cc(-c2ccc3cccc(C)c3n2)ccc1NC(=O)OC(C)(C)C [Example 017, tert-butyl (2-methyl-4-(8-methylquinolin-2-yl)phenyl)carbamate]
16 | < 0.2 | Cc1cc(-c2ccc3cc(C(F)(F)F)cc(C)c3n2)ccc1NC(=O)c1ccnn1C [Example 203, 1-methyl-N-(2-methyl-4-(8-methyl-6-(trifluoromethyl)quinolin-2-yl)phenyl)-1H-pyrazole-5-carboxamide]
17 | 0.5 to 1 | Cc1cc(-c2ccc3cc(F)ccc3n2)ccc1NC(=O)c1cccnn1 [Example 031, N-(4-(6-fluoroquinolin-2-yl)-2-methylphenyl)pyridazine-3-carboxamide]
18 | 1 to 10 | Cc1cc(-c2ccc3cc(F)ccc3n2)ccc1NC(=O)c1cncnc1 [Example 030, N-(4-(6-fluoroquinolin-2-yl)-2-methylphenyl)pyrimidine-5-carboxamide]
19 | < 0.2 | Cc1cc(C(F)(F)F)nc2cnc(-c3ccc(NC(=O)c4ccnn4C)c(F)c3)nc12 [Example 163, N-[2-fluoro-4-[8-methyl-6-(trifluoromethyl)pyrido[3,2-d]pyrimidin-2-yl]phenyl]-1-methyl-1H-pyrazole-5-carboxamide]
20 | 0.2 to 0.5 | Cc1cc(-c2ccc3c(C(F)(F)F)cccc3n2)ccc1NC(=O)c1ccnn1C [Example 057, 1-methyl-N-(2-methyl-4-(5-(trifluoromethyl)quinolin-2-yl)phenyl)-1H-pyrazole-5-carboxamide]
21 | < 0.2 | Cc1cc(-c2nc3cc(F)ccc3s2)ccc1NC(=O)c1ccnn1C [Example 099, N-(4-(5-fluorobenzo[d]thiazol-2-yl)-2-methylphenyl)-1-methyl-1H-pyrazole-5-carboxamide]
22 | < 0.2 | Cc1cc(-c2ccc3cccc(Cl)c3n2)ccc1NC(=O)c1ccnn1C [Example 012, N-(4-(8-chloroquinolin-2-yl)-2-methylphenyl)-1-methyl-1H-pyrazole-5-carboxamide]
23 | 1 to 10 | Cc1cc(-c2nc3ccc(F)cc3s2)ccc1NC(=O)c1ccnn1C [Example 098, N-(4-(6-fluorobenzo[d]thiazol-2-yl)-2-methylphenyl)-1-methyl-1H-pyrazole-5-carboxamide]
24 | 0.2 to 0.5 | Cc1cc(-c2ccc3cc(N4CCOCC4)ccc3n2)ccc1NC(=O)c1ccnn1C [Example 071, 1-methyl-N-(2-methyl-4-(6-morpholinoquinolin-2-yl)phenyl)-1H-pyrazole-5-carboxamide]
25 | 1 to 10 | Cc1cc(-c2ccc3cc(F)cc(C(C)C)c3n2)ccc1NC(=O)c1ccnn1C [Example 055, N-(4-(6-fluoro-8-isopropylquinolin-2-yl)-2-methylphenyl)-1-methyl-1H-pyrazole-5-carboxamide]
26 | 1 to 10 | Cc1cc(-c2ccc3cc(F)ccc3n2)ccc1NC(=O)c1ccnnc1 [Example 029, N-(4-(6-fluoroquinolin-2-yl)-2-methylphenyl)pyridazine-4-carboxamide]
27 | 0.2 to 0.5 | Cc1cc(-c2ccc3cc(F)ccc3n2)ccc1NC(=O)c1ccnn1C [Example 014, N-(4-(6-fluoroquinolin-2-yl)-2-methylphenyl)-1-methyl-1H-pyrazole-5-carboxamide]
